Experimental data from patent publication US20260248781A1, “SOLUBLE GUANYLATE CYCLASE ACTIVATORS FOR USE IN THE TREATMENT OF HEART FAILURE WITH PRESERVED EJECTION FRACTION IN WOMEN” (BAYER AKTIENGESELLSCHAFT, priority 2022, published 2026).
Where “and” joins values, the source holds several entries; their conditions need not be identical. Equal values may be shown once.

Key:
Type in all cases: in vivo
[1] = system: RenTG/L-NAME-supplemented female rats; experiment: RenTG rat model: kidney function by proteinuria (uPCR) in female rats (B-1.4); settings: 3 mg/kg BID; for uPCR % (normalized to placebo): placebo set as 100%
Experimental: (§1) Male and female rennin-transgenic rats [TG(mRRen2)27] (RenTG rats) at the age of 8 weeks were used. Rats were randomized in groups with 12-24 rats/group. All groups were then chronically supplemented with L-NAME administrated via drinking water (30-50 mg/l). The L-NAME was dissolved in tap water and stored by room temperature. All groups were treated via oral gavage with either placebo/vehicle consisting of 10% transcutol, 20% cremophor and 70% tap water or different doses of the respective verum. The verum was dissolved in the vehicle and prepared freshly before administration. Study duration with concomitant L-NAME administration and treatment was up to 12 weeks. The baseline blood pressure was measured via tail-cuff method before the start of the treatment and after different time points during the study. Mortality and body weight were assessed on a daily basis. Urine samples were collected via the use of metabolic cages and urine was collected over a period of six hours to quantify proteinuria as correlate of kidney function and different urinary biomarkers for kidney and organ damage. At the end of the study all animals were kept in depth narcotic and bled via aortic puncture and sacrificed by permanent inhaled isoflurane, blood was taken in order to assess plasma parameters, and heart and kidney were weighed and harvested for histopathological evaluation.
Urinary protein to creatinine ratio in the RenTG/L-NAME-supplemented female rats treated with either placebo (set as 100%) or 3 mg/kg example 1 BID or example 3 BID respectively. Data are mean±SEM.

[2] = system: RenTG/L-NAME-supplemented male rats; experiment: RenTG rat model: kidney function by proteinuria (uPCR) in male rats (B-1.2); settings: for uPCR % (normalized to placebo): placebo set as 100%
Experimental: as §1
Urinary protein to creatinine ratio in the RenTG/L-NAME-supplemented male rats treated with either placebo (set as 100%) or with 1, 3 and 10 mg/kg example 1 (runcaciguat) BID was investigated (see table is 2).

[3] = system: RenTG/L-NAME-supplemented male rats; experiment: RenTG rat model: survival rate assessment in male rats (B-1.1); settings: for mortality: placebo 58%
Experimental: as §1
The survival rate in % of the RenTG/L-NAME-supplemented male rats treated with either placebo, or 1, 3 and 10 mg/kg runcaciguat (example 1) BID was investigated (see table 1).

[4] = system: RenTG/L-NAME-supplemented female rats; experiment: RenTG rat model: survival rate assessment in female rats (B-1.3); settings: 3 mg/kg BID, placebo 64.3%
Experimental: as §1, with “evaluation. […]” for “evaluation.”

[5] = system: RenTG/L-NAME-supplemented male, female and female OVX rats; experiment: RenTG rat model: proteinuria (uPCR) in male, female and female OVX rats, OD dosing (B-1.6); settings: for Urinary protein to creatinine ratio: 3 mg/kg OD, placebo 100; for reduction of proteinuria: OD
Experimental: as §1
The most striking differences between male and female were seen on proteinuria. […] In female rats these effects were much more pronounced, and proteinuria was reduced by 88% and by 99% in female rats without OVX and with OVX, respectively.

[6] = system: RenTG/L-NAME-supplemented male, female and female OVX rats; experiment: RenTG rat model: survival rate in male, female and female ovariectomized (OVX) rats, head-to-head, OD dosing (B-1.5); settings: for % survival: 3 mg/kg OD
Experimental: as §1
In male rat 93% of rats survived whereas in female rats all the rats survived in the sGC activator treatment arm (100%). There was no difference in survival rates in female OVX rats compared to non-OVX rats.

## C[C@H]([C@H](C(=O)Nc1cc([C@@H](CC(=O)O)C2CC2)ccc1Cl)c1ccc(Cl)cc1)C(F)(F)F [Example 1, (3S)-3-(4-chloro-3-{[(2S,3R)-2-(4-chlorophenyl)-4,4,4-trifluoro-3-methylbutanoyl]amino}phenyl)-3-cyclopropylpropanoic acid]
[1]
  reduction of proteinuria: 55%
  uPCR % (normalized to placebo): 44.5%
[2]; 1 mg/kg BID
  reduction of proteinuria: 15%
  uPCR % (normalized to placebo): 85.4%
[2]; 3 mg/kg BID
  reduction of proteinuria: 29%
  statistical evaluation of proteinuria reduction: statistically significant
  uPCR % (normalized to placebo): 71.1%
[2]; 10 mg/kg BID
  reduction of proteinuria: 39%
  statistical evaluation of proteinuria reduction: statistically significant
  uPCR % (normalized to placebo): 60.6%
[3]; 3 mg/kg BID, male rats at the point of 64% control survival vs female rats
  lower survival of male compared to female rats: 30%
[3]; male rats, 1 mg/kg BID p.o.
  % survival: 44%
  mortality: 56%
[3]; male rats, 3 mg/kg BID
  survival rate at the point when 64% of the male control animals were still alive: 70%
[3]; male rats, 3 mg/kg BID p.o.
  statistical evaluation of mortality reduction: strong numerical trend
  mortality: 39%
[3]; male rats, 3 mg/kg BID p.o., 3 mg/kg
  % survival: 60% and 61%
[3]; male rats, 10 mg/kg BID p.o.
  % survival: 72%
  statistical evaluation of mortality reduction: reached statistical significance
  mortality: 28%
[3]; male rats, 1, 3 and 10 mg/kg BID p.o.
  effect on survival rates: dose-dependently increased the survival rates
[4]
  % survival: 100%

## CC(C)CN1CCN(c2ccc(-c3ccc(Cl)cc3N3CCC[C@@H](n4ncc(C(=O)O)c4C(F)F)C3)cc2)CC1 [Example 3, 1-{3(R)-1-[4-Chloro-4′-(4-isobutylpiperazin-1-yl)[biphenyl]-2-yl]piperidin-3-yl}-5-(difluoromethyl)-1H-pyrazole-4-carboxylic acid]
[1]
  reduction of proteinuria: 84%
  uPCR % (normalized to placebo): 16.4%
[5]; female OVX rats
  Urinary protein to creatinine ratio: 1
[5]; female rats with OVX
  reduction of proteinuria: 99%
[5]; female rats without OVX
  reduction of proteinuria: 88%
[5]; female rats
  Urinary protein to creatinine ratio: 12
[5]; male rats
  Urinary protein to creatinine ratio: 43
  reduction of proteinuria: 57%
[6]; female OVX rats, placebo 40%
  % survival: 100%
[6]; female rats, placebo 47%
  % survival: 100%
[6]; male rats, placebo 60%
  % survival: 93%
[6]; once daily dosing (OD)
  survival rate in male rats lower than in female rats: 7%
  survival rates in female OVX rats compared to non-OVX rats: no difference
[4]; 3 mg/kg
  % survival: 92,3%
